Laboratory results published in patent US20250073234A1, “COMBINATION THERAPIES INCLUDING PARP1 INHIBITORS” (Cornell University, priority 2022, published 2025).

Legend:
WPMY-1 cells = experiment: qPCR of CAF / stromal activation markers in WPMY-1 cells; type: cell-based, human
Source text: To knock out PARP-1 in WPMY-1 cells, single-guide RNA sequences targeting PARP-1 exon2 were purchased from Synthego and transduced into WPMY-1 cells with recombinant Streptococcus pyogenes Cas9 protein (Truecut Cas9 Protein v2, Thermo), using the Neon Transfection System 1 (Invitrogen) following the manufacturer's protocol and single clones were expanded and screened by protein immunoblotting. To perform AP1-A binding site editing in the SQSTM promoter in WPMY-1 cells, single-guide RNA sequences targeting the human AP1-A binding site (Synthego) was transduced into cells with a Cas9 protein and a single-stranded donor oligonucleotide (ssODN, IDT) using Neon Electroporation System. Single clones were expanded and screened for AP1-A editing by Sanger sequencing. A point mutation to disrupt the API enhancer element in the p62 promoter was introduced by Site Directed Mutagenesis (Stratagene). Knockdown of MCT1, MCT4, FOS, PARP1, PARP2, CD38, ATG5, and SIRT1-7 genes in WPMY-1 cells were achieved by siRNA transfection using Lipofectamine RNAiMAX Transfection Reagent (Invitrogen). Transient overexpression was achieved by transfection using X-tremeGENE HP transfection reagent (Roche). Transfected cells were examined 48 hours after transfection. Establishing stably GFP or RFP expressing cells was achieved by lentivirus-mediated transduction. Lentivirus were produced in HEK293T cells using X-tremeGENE HP transfection reagent (Roche). Virus-containing supernatants were collected 48, 72 and 96 hours after transfection, filtered to eliminate cells, and supplemented with 8 μg/ml polybrene. Cells were infected with three rounds of viral supernatants and selected with puromycin (3 μg/ml). For autophagy or proteasome inhibition, WPMY-1 cells were treated for 12 hours with 100 nM bafilomycin Al or 12 hours with 20 μM of MG132, respectively, or vehicle (DMSO). For PARP1 inhibition, WPMY-1 cells were treated with PJ34 (2 days) or Olaparib (4 days) at the doses indicated in each experiment. For MCT1 inhibition, WPMY-1 cells were treated for 48 hours with 10 μM of AZD3965. For cJUN inhibition, WPMY-1 cells were treated for 48 hours with 10 μM of SP600125. For calpains and caspases inhibition, WPMY-1 cells were treated for 48 hours with 1-20 μM of Calpeptin (Tocris) or z-VAD-FMK (Tocris), respectively. For protein synthesis inhibition, WPMY-1 cells were treated with 50 μg/ml of cycloheximide (Sigma). Conditioned media (CM) was generated by collecting supernatant on day 3. CM was transferred to a 15 ml BD Falcon tube and centrifuged at 1300 rpm for 10 minutes. The supernatant was sterile filtered using a […] (Millex-GV) with a 10 ml syringe barrel. The samples were stored at […] for future experiments. Fractionation of the CM was achieved using Amicon Ultra centrifugal filters (3KUltracel, Millipore). The supernatant was centrifuged at 4000 rpm for 1 hour. The supernatant fraction that was >3 kDa remained above the filter and that which was <3 kDa passed through to the lower chamber. The >3-kDa fraction was resuspended in DMEM to the pre-filtration volume.
Total RNA from mouse tissues, cells and cultured organoids was extracted using the TRIZOL reagent (Invitrogen) and the RNeasy Mini Kit (QIAGEN), followed by DNase treatment. After quantification using a Nanodrop 1000 spectrophotometer (Thermo Scientific), RNA was either processed for RNA-seq or reverse-transcribed using random primers and MultiScribe Reverse Transcriptase (Applied Biosystems). Gene expression was analyzed by amplifying 20 ng of the complementary DNA using the CFX96 Real Time PCR Detection System with SYBR Green Master Mix (BioRad) and primers described in Table S1. The amplification parameters were set at 95° C. for 30 seconds, 58° C. for 30 seconds, and 72° C. for 30 seconds (40 cycles total). Gene expression values for each sample were normalized to the 18s RNA.

PARP-1 = experiment: Poly(ADP-ribosyl)ation in WPMY-1 cells (immunoblot, immunoprecipitation); type: cell-based, human; details: added to lactate-treated cells, 48 h
Procedure: (§1) Cells for protein analysis were lysed in RIPA buffer (20 mM Tris-HCl, […], 2 mM EDTA, 1% Triton-X, 10% glycerol, 0.1% SDS, and 0.5% sodium deoxycholate) with phosphatase and protease inhibitors. For immunoprecipitations, cells were lysed in IP lysis buffer (100 mM NaCl, 25 mM Tris, 1% Triton-X, 10% glycerol, with phosphatase and protease inhibitors) and immunoprecipitated with 25 μl of 50% slurry of protein […] beads (Bioworld). Immunoprecipitates were washed three times with lysis buffer, once with high salt (500 mM NaCl), and once more with lysis buffer. Protein concentration in lysates was determined by using Protein Assay Kit (Bio-Rad). Cell extracts and immunoprecipitated proteins were denatured, subjected to SDS-PAGE, transferred to PVDF membranes (GE Healthcare). After blocking with 5% nonfat dry milk in Tris-buffered saline and 0.1% Tween (TBS-T), the membranes were incubated with the specific antibodies (as listed in Key Resources Table) overnight at 4° C. After 2 hours incubation with the appropriate horseradish peroxidase-conjugated antibodies, the immune complexes were detected by chemiluminescence (Thermo Scientific) or Near-infrared fluorescence (LI-COR).

[1] = test system: p62 in prostate, lung, breast and endometrial primary fibroblasts; experiment: p62 immunoblot in primary fibroblasts of different tissue origins; type: cell-based; details: Olaparib 20 μM, 4 days
Procedure: as §1

SMILES	lactate-induced expression of CAF activation markers (WPMY-1 cells; lactate plus NAD+, 48 h)	poly(ADP-ribosyl)ation of c-JUN and c-FOS in lactate-treated cells (PARP-1)	CAF markers (ACTA2, SFRP1, TGFB, MMP9, HA synthases) (WPMY-1 cells; Olaparib, basal and ADT conditions)	Has1 and Has3 expression (WPMY-1 cells; basal and ADT conditions)	Tgfb1 levels (WPMY-1 cells; basal and ADT conditions)	SPINK1 levels (WPMY-1 cells; human prostate cells, ADT conditions)	p62 expression [1]
NC(=O)c1ccc[n+]([C@@H]2O[C@H](COP(=O)([O-])OP(=O)(O)OC[C@H]3O[C@@H](n4cnc5c(N)ncnc54)[C@H](O)[C@@H]3O)[C@@H](O)[C@H]2O)c1 [NAD^+]	reverted	rescued the poly(ADP-ribosyl) ation of both transcription factors	–	–	–	–	–
O=C(c1cc(Cc2n[nH]c(=O)c3ccccc23)ccc1F)N1CCN(C(=O)C2CC2)CC1 [Olaparib]	–	–	upregulated CAF markers	upregulated	increased levels of Tgfb1	highly upregulated	downregulated p62 expression
